The text below walks through data of DBAASP.

In brackets after ≈: the same amount, converted by molar mass.

Experiment in all cases: ≥ marks a high value that may be exact or a test limit, other limits are often not marked, values filed in µg/mL are converted to µM
For experiment [1], the system named is Cryptococcus neoformans B3501.
Experiment [2] deals with Escherichia coli O157:H7 ATCC 43895.
Experiment [3] has as its system Escherichia coli U16318.
For experiment [4], the system named is Staphylococcus aureus B38302.
The test system of experiment [5] is Bacillus megaterium CIP 6620.
For experiment [6], the system named is Corynebacterium stationis CIP 101282.
Experiment [7] concerns Escherichia coli SBS 363.
Experiment [8] deals with Microbacterium maritypicum CIP 105733T.
Experiment [9] relates to Micrococcus luteus CIP 5345.
Experiment [10] concerns Staphylococcus aureus CIP 103428.
The test system of experiment [11] is Staphylococcus aureus SG511.
Experiment [12] has as its system Staphylococcus haemolyticus.
For experiment [13], the system named is Vibrio nigripulchritudo CIP 103195.
Experiment [14] deals with Vibrio splendidus CIP 107715.
In experiment [15] the test system is Bacillus megaterium ATCC 19213.
The subject of experiment [16] is Bacillus subtilis NBRC 3513.
Experiment [17] concerns Staphylococcus aureus NBRC 12732.
For experiment [18], the system named is Staphylococcus epidermidis NBRC 12933.
Experiment [19] concerns Aspergillus fumigatus IOC 4526.
The subject of experiment [20] is Candida albicans ATCC 36802.
Experiment [21] concerns Candida albicans IOC 4558.
Experiment [22] deals with Candida glabrata IOC 4565.
Experiment [23] deals with Candida krusei IOC 4559.
Experiment [24] has as its system Candida parapsilosis IOC 4564.
In experiment [25] the test system is Candida tropicalis IOC 4560.
The subject of experiment [26] is Cryptococcus neoformans ATCC 90112.
In experiment [27] the test system is Cryptococcus neoformans IOC 4528.
Experiment [28] has as its system Pseudomonas aeruginosa ATCC 27853.
Experiment [29] has as its system Staphylococcus aureus ATCC 29213.
Experiment [30] concerns Trichophyton rubrum IOC 4527.
Experiment [31] concerns Trichosporon sp. IOC 4569.
For experiment [32], the system named is Bacillus megaterium KCTC 1096.
For experiment [33], the system named is Bacillus subtilis KCTC 1918.
Experiment [34] concerns Escherichia coli KCTC 1682.
For experiment [35], the system named is Proteus vulgaris.
The test system of experiment [36] is Pseudomonas aeruginosa KCTC 1637.
In experiment [37] the test system is Staphylococcus aureus KCTC 1621.
For experiment [38], the system named is Candida albicans CCARM 14001.
The test system of experiment [39] is Candida albicans CCARM 14007.
In experiment [40] the test system is Candida albicans CCARM 14020.
Experiment [41] relates to Candida albicans KCTC 7270.
Experiment [42] relates to Escherichia coli CCARM 1229.
Experiment [43] deals with Escherichia coli CCARM 1238.
The subject of experiment [44] is Listeria monocytogenes KCTC 3710.
For experiment [45], the system named is Salmonella typhimurium KCTC 1926.
For experiment [46], the system named is Trichosporon beigelii KCTC 7707.

For the compound `CC(C)C[C@H](NC(=O)[C@H](C)N)C(=O)N[C@@H](Cc1c[nH]c2ccccc12)C(=O)N[C@@H](CCCCN)C(=O)N[C@H](C(=O)N[C@@H](CC(C)C)C(=O)N[C@@H](CC(C)C)C(=O)N[C@@H](CCCCN)C(=O)N[C@@H](CCCCN)C(=O)N[C@H](C(N)=O)C(C)C)[C@@H](C)O` [ALWKTLLKKV], the MIC – broadly, the smallest concentration in the dilution series that meets the test's criterion for growth inhibition – in experiment [1] was 30 µM (≈ 36 µg/mL); in [2], at least 32 µM; in experiment [3], at least 50 µM; in experiment [4] it was at least 50 µM.
Turning to `CC[C@H](C)[C@H](NC(=O)[C@@H]1CCCN1C(=O)CN)C(=O)N[C@@H](CCCN=C(N)N)C(=O)N[C@@H](CCCN=C(N)N)C(=O)N1CCC[C@H]1C(=O)N[C@@H](CCCCN)C(=O)N1CCC[C@H]1C(=O)N[C@@H](CCCN=C(N)N)C(=O)N1CCC[C@H]1C(=O)N[C@@H](CCCN=C(N)N)C(=O)N1CCC[C@H]1C(=O)N[C@@H](CCCN=C(N)N)C(=O)N1CCC[C@H]1C(=O)N[C@@H](CCC(=O)O)C(=O)O` [GPIRRPKPRPRPRPE], the minimum inhibitory concentration (MIC) in experiment [5] is 20 µM (≈ 36.2 µg/mL); in [6], 20 µM (≈ 36.2 µg/mL); in experiment [7], at least 80 µM; in experiment [8], 20 µM (≈ 36.2 µg/mL); in [9], at least 80 µM; in experiment [10], 20 µM (≈ 36.2 µg/mL). The MIC in [11] was 20 µM (≈ 36.2 µg/mL); in experiment [12], 20 µM (≈ 36.2 µg/mL); in experiment [13], at least 40 µM; in [14] it was at least 40 µM.
As for `CC(C)C[C@H](NC(=O)[C@@H](N)CCCCN)C(=O)NCC(=O)N[C@@H](Cc1cnc[nH]1)C(=O)N[C@@H](Cc1cnc[nH]1)C(=O)NCC(=O)N[C@@H](CCCN=C(N)N)C(=O)N[C@@H](C)C(=O)N1CCC[C@H]1C(=O)N1CCC[C@H]1C(=O)O` [KLGHHGRAPP], the MIC in experiment [15], in experiment [16], in experiment [17] and in experiment [18] was at least 128 µM in each case.
On to `CC[C@H](C)[C@H](NC(=O)[C@H](CCCCN)NC(=O)[C@H](CCC(=O)O)NC(=O)[C@H](CCCCN)NC(=O)[C@@H]1CCCN1C(=O)[C@H](Cc1ccccc1)NC(=O)[C@H](CO)NC(=O)[C@H](Cc1cnc[nH]1)NC(=O)CNC(=O)CNC(=O)[C@H](CCCCN)NC(=O)[C@H](CCCCN)NC(=O)[C@H](Cc1cnc[nH]1)NC(=O)[C@H](CO)NC(=O)[C@H](CCC(N)=O)NC(=O)[C@@H](N)CCCCN)C(=O)N[C@@H](CO)C(=O)O` [KQSHKKGGHSFPKEKIS], for which the MIC in experiment [19] was at least 52 µM; in experiment [20] it was at least 52 µM; in [21], at least 41.6 µM; in [22] it was at least 41.6 µM; in [23], 29.4 µM (≈ 56.6 µg/mL); in experiment [24], at least 41.6 µM. The MIC in [25] is at least 41.6 µM; in [26], 4.41 µM (≈ 8.49 µg/mL); in experiment [27] it was 4.41 µM (≈ 8.49 µg/mL); in experiment [7] it was at least 41.6 µM; in experiment [28], above 41.6 µM; in experiment [29] it was above 41.6 µM. Also, the MIC is at least 52 µM in experiment [30] and at least 41.6 µM in experiment [31].
`CC[C@H](C)[C@H](NC(=O)[C@H](CCCCN)NC(=O)[C@H](CCCCN)NC(=O)[C@H](Cc1ccccc1)NC(=O)[C@H](CC(C)C)NC(=O)[C@H](CCCCN)NC(=O)[C@H](Cc1c[nH]c2ccccc12)NC(=O)[C@@H](N)CCCCN)C(=O)N1CCC[C@H]1C(=O)N[C@@H](CC(C)C)C(=O)N[C@@H](C)C(=O)N[C@@H](CCCCN)C(=O)N[C@@H](CCCCN)C(=O)N[C@@H](Cc1ccccc1)C(N)=O` [KWKLFKKIPLAKKF]: the minimum inhibitory concentration (MIC) amounted to 3.12 µM (≈ 5.54 µg/mL) in [32]; 1.56 µM (≈ 2.77 µg/mL) in experiment [33]; 8.84 µM (≈ 15.7 µg/mL) in [34]; 3.12 µM (≈ 5.54 µg/mL) in experiment [35]; 12.5 µM (≈ 22.2 µg/mL) in experiment [36]; 6.25 µM (≈ 11.1 µg/mL) in experiment [37].
As for `NCCCC[C@H](NC(=O)[C@H](Cc1c[nH]c2ccccc12)NC(=O)[C@H](CCCCN)NC(=O)[C@H](Cc1c[nH]c2ccccc12)NC(=O)[C@H](CCCCN)NC(=O)[C@@H](N)Cc1c[nH]c2ccccc12)C(=O)O` [WKWKWK], the MIC in experiment [33] was at least 256 µM; in experiment [38], at least 32 µM; in experiment [39], at least 32 µM; in experiment [40], at least 32 µM; in experiment [41], at least 32 µM; in [42], at least 256 µM. For the same compound, the minimum inhibitory concentration (MIC) in experiment [43] was at least 256 µM; in [34], at least 256 µM; in [44] it was at least 128 µM; in experiment [36], at least 64 µM; in experiment [45], 16 µM (≈ 15.4 µg/mL); in [37], at least 256 µM. Also, the MIC in experiment [46] came out at 16 µM (≈ 15.4 µg/mL).
